These are literature values, as cited in EP4674947A1, “YEAST MUTANT STRAIN WITH HIGH GLYCOLIPID PRODUCTIVITY” (KAO CORPORATION, priority 2024, dated 2025).

The conditions of the data set: decreased from 72.8 mN/m; sophorolipid produced by Starmerella bombicola.

With Sophorolipid, the “surface tension of water decreased to” value is 30 mN/m.
